Experimental data published in BindingDB's records for doi:10.1021/acs.jmedchem.0c01826 (Athenex, 2021).

Experiments:
[1] = Inhibition of P-gp (unknown origin) expressed in MES-SA/DX5 cells assessed as cell growth inhibition after 3 days in presence of 200 nM paclitaxel by MTT assay
[2] = Inhibition of P-gp (unknown origin) expressed in MES-SA/DX5 cells assessed as increase in reversal of resistance to paclitaxel-induced cytotoxicity by measuring reduction in paclitaxel EC50 at 50 nM incubated for 72 hrs in presence of paclitaxel by SRB assay (Rvb = 294.6 nM)
[3] = Inhibition of P-gp (unknown origin) expressed in MCF7 cells assessed as increase in reversal of resistance to paclitaxel-induced cytotoxicity by measuring reduction in paclitaxel EC50 at 50 nM incubated for 72 hrs in presence of paclitaxel by SRB assay (Rvb = 11.5 nM)

Row | Compound | EC50 [1] [nM] | EC50 [2] [nM] | EC50 [3] [nM]
1 | COc1cc2c(cc1OC)CN(CCc1ccc(NC(=O)c3cc(OC)c(OC)cc3NC(=O)c3cnc4ccccc4c3)cc1)CC2 | 16 |  | 
2 | COc1cc2c(cc1OC)CN(CCc1ccc(-n3nnc(-c4cc(OC)c(OC)cc4NC(=O)c4cnc5ccccc5c4)n3)cc1)CC2 | 75 | 15 | 7.9
3 | COc1cc2c(cc1OC)CN(CCc1ccc(-n3nnc(-c4cc(OC)c(OC)cc4NC(=O)c4ccc5ccccc5n4)n3)cc1)CC2 |  | 110 | 12
4 | COc1cc2c(cc1OC)CN(CCc1ccc(-n3nnc(-c4cc(OC)c(OC)cc4NC(=O)c4cc5ccccc5cn4)n3)cc1)CC2 |  | 84 | 8.5
5 | COc1cc2c(cc1OC)CN(CCc1ccc(-n3nnc(-c4cc(OC)c(OC)cc4NC(=O)c4cccc5cccnc45)n3)cc1)CC2 |  | 69 | 5.4
6 | COc1cc2c(cc1OC)CN(CCc1ccc(-n3nnc(-c4cc(OC)c(OC)cc4NC(=O)c4nccc5ccccc45)n3)cc1)CC2 |  | 162 | 7.6
7 | COc1cc2c(cc1OC)CN(CCc1ccc(-n3nnc(-c4cc(OC)c(OC)cc4NC(=O)c4cncc5ccccc45)n3)cc1)CC2 |  | 89 | 9.1
8 | COc1cc2c(cc1OC)CN(CCc1ccc(-n3nnc(-c4cc(OC)c(OC)cc4NC(=O)c4cccnc4)n3)cc1)CC2 |  | 98 | 9.1
9 | COc1cc2c(cc1OC)CN(CCc1ccc(-n3nnc(-c4cc(OC)c(OC)cc4NC(=O)c4ccc5ccccc5c4)n3)cc1)CC2 |  | 113 | 10
10 | COc1cc2c(cc1OC)CN(CCc1ccc(-n3nnc(-c4cc(OC)c(OC)cc4NC(=O)c4cnccn4)n3)cc1)CC2 |  | 98 | 9.1
11 | COc1cc2c(cc1OC)CN(CCc1ccc(-n3nnc(-c4cc(OC)c(OC)cc4NC(=O)c4ccccc4)n3)cc1)CC2 |  | 87 | 7.7
12 | COc1cc2c(cc1OC)CN(CCc1ccc(-n3nnc(-c4cc(OC)c(OC)cc4NC(=O)c4ccc(F)c(F)c4)n3)cc1)CC2 |  | 80 | 10
13 | COc1cc2c(cc1OC)CN(CCc1ccc(-n3nnc(-c4cc(OC)c(OC)cc4NC(=O)c4ccsc4)n3)cc1)CC2 |  | 66 | 6.4
14 | COc1cc2c(cc1OC)CN(CCc1ccc(-n3nnc(-c4cc(OC)c(OC)cc4NC(=O)c4ccoc4)n3)cc1)CC2 |  | 84 | 10
15 | COc1cc2c(cc1OC)CN(CCc1ccc(-n3nnc(-c4cc(OC)c(OC)cc4NC(=O)c4coc5ccccc5c4=O)n3)cc1)CC2 |  | 140 | 9
16 | COc1cc2c(cc1OC)CN(CCc1ccc(-n3nnc(-c4cc(OC)c(OC)cc4NC(=O)c4cc(=O)c5c(OC)cccc5o4)n3)cc1)CC2 |  | 5.9 | 7.4
17 | COc1cc2c(cc1OC)CN(CCc1ccc(-n3nnc(-c4cc(OC)c(OC)cc4NC(=O)c4cc(=O)c5cc(F)ccc5o4)n3)cc1)CC2 |  | 7.5 | 8.1
18 | COc1cc2c(cc1OC)CN(CCc1ccc(-n3nnc(-c4cc(OC)c(OC)cc4NC(=O)c4cc(=O)c5cc(C)ccc5o4)n3)cc1)CC2 |  | 4 | 6.5
19 | COc1cc2c(cc1OC)CN(CCc1ccc(-n3nnc(-c4cc(OC)c(OC)cc4NC(=O)c4cc(=O)c5ccccc5o4)n3)cc1)CC2 [Encequidar] | 13 | 4.9 | 7.9
